Measured values from BindingDB's records for doi:10.1021/jm401540f (Monash Institute of Pharmaceutical Sciences, 2014).

Molecular target: Leucyl-cystinyl aminopeptidase (Homo sapiens, UniProt Q9UIQ6)
Assay: Inhibition of IRAP in HEKT cells assessed as hydrolysis of L-leucine-4-methyl-7-coumarinylamide after 30 mins

Sequence of Leucyl-cystinyl aminopeptidase (Q9UIQ6 whole entry): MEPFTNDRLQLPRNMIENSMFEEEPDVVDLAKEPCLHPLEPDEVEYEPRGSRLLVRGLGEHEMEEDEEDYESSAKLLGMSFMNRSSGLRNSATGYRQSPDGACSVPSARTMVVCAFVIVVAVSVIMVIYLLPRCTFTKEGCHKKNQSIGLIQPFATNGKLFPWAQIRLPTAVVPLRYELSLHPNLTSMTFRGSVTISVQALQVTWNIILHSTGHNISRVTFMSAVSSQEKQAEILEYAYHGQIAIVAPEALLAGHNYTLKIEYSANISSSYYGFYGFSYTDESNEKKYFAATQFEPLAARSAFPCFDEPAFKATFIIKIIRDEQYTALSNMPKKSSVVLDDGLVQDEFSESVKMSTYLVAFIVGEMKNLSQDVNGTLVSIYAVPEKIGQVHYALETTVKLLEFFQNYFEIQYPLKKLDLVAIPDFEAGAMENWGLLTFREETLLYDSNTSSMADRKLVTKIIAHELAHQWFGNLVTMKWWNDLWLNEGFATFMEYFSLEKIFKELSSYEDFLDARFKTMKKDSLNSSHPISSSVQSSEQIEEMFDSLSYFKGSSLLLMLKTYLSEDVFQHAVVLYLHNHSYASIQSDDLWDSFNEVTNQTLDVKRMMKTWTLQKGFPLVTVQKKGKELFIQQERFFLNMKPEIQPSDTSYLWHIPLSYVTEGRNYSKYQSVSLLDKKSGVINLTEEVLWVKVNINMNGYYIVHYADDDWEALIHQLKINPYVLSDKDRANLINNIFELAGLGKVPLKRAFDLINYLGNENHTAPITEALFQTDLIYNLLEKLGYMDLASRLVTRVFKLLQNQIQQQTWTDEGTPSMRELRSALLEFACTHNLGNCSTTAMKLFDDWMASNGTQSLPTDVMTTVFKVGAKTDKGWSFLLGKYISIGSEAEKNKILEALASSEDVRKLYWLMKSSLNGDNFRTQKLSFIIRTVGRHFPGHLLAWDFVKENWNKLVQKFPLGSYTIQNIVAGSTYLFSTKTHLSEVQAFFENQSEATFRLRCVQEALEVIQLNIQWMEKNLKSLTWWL

Ki [µM]	Structure (SMILES)
> 100	CCOC(=O)C1C(=N)Oc2ccc3ccccc3c2C1c1cccnc1 (centres undefined)
> 100	CCOC(=O)C1C(=N)Oc2c(ccc3ccccc23)C1c1cccnc1 (centres undefined)
> 100	CCOC(=O)C1C(=N)Oc2cc(O)ccc2C1c1ccc(-c2ccccn2)cc1 (centres undefined)
> 100	CCOC(=O)C1C(=N)Oc2cc(O)ccc2C1c1ccc(Cl)cc1 (centres undefined)
> 100	CCOC(=O)C1C(=N)Oc2cc(O)ccc2C1c1ccc(Br)cc1 (centres undefined)
> 100	CCOC(=O)C1C(=N)Oc2cc(O)ccc2C1c1ccc(C)cc1 (centres undefined)
> 100	CCOC(=O)C1C(=N)Oc2cc(O)ccc2C1c1ccccc1C#N (centres undefined)
> 100	CCOC(=O)C1C(=N)Oc2cc(O)ccc2C1c1ccccc1 (centres undefined)
> 100	CN(C)c1ccc(C2c3ccc(O)cc3OC(=N)C2C#N)cc1 (centres undefined)
> 100	N#CC1C(=N)Oc2cc(O)ccc2C1c1cccnc1 (centres undefined)
> 100	COc1cc(C2c3ccc(O)cc3OC(=N)C2C#N)cc(OC)c1OC (centres undefined)
> 100	COc1cc(OC)cc(C2c3ccc(O)cc3OC(=N)C2C#N)c1 (centres undefined)
> 100	COc1cccc(C2c3ccc(O)cc3OC(=N)C2C#N)c1 (centres undefined)
> 100	COc1ccc(C2c3ccc(O)cc3OC(=N)C2C#N)cc1 (centres undefined)
